For one assay, the target named is RON (human) (Homo sapiens, UniProt Q04912). Description: RON (human) AlphaScreen kinase assay, Km of ATP. It counts as biochemical. To be noted: AlphaScreen, Km of ATP; read-out: RON biochemical IC50. The essentials: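 Detection used PT66 AlphaScreen beads added in Tris pH 7.5/NaCl/EDTA/BSA buffer, read after 1 h incubation. Vehicle-only DMSO wells served as controls.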
(Alpha assays give light when donor and acceptor beads are brought close together.)

In a further assay the target is MET (human) (Homo sapiens, UniProt P08581). The assay can be described thus: MET (human) AlphaScreen kinase assay, Km of ATP. Type of assay: biochemical. The following applies: AlphaScreen, Km of ATP; read-out: Met biochemical IC50. The essentials:
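Human MET at lot-optimised concentration in 50 mM Tris pH 7.4 buffer with 1 mM DTT, compound at 1% DMSO final; enzyme starts the reaction, 60 min at RT.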

Some results are limits rather than exact numbers.

Sequence of RON (human) (Q04912 25-1400): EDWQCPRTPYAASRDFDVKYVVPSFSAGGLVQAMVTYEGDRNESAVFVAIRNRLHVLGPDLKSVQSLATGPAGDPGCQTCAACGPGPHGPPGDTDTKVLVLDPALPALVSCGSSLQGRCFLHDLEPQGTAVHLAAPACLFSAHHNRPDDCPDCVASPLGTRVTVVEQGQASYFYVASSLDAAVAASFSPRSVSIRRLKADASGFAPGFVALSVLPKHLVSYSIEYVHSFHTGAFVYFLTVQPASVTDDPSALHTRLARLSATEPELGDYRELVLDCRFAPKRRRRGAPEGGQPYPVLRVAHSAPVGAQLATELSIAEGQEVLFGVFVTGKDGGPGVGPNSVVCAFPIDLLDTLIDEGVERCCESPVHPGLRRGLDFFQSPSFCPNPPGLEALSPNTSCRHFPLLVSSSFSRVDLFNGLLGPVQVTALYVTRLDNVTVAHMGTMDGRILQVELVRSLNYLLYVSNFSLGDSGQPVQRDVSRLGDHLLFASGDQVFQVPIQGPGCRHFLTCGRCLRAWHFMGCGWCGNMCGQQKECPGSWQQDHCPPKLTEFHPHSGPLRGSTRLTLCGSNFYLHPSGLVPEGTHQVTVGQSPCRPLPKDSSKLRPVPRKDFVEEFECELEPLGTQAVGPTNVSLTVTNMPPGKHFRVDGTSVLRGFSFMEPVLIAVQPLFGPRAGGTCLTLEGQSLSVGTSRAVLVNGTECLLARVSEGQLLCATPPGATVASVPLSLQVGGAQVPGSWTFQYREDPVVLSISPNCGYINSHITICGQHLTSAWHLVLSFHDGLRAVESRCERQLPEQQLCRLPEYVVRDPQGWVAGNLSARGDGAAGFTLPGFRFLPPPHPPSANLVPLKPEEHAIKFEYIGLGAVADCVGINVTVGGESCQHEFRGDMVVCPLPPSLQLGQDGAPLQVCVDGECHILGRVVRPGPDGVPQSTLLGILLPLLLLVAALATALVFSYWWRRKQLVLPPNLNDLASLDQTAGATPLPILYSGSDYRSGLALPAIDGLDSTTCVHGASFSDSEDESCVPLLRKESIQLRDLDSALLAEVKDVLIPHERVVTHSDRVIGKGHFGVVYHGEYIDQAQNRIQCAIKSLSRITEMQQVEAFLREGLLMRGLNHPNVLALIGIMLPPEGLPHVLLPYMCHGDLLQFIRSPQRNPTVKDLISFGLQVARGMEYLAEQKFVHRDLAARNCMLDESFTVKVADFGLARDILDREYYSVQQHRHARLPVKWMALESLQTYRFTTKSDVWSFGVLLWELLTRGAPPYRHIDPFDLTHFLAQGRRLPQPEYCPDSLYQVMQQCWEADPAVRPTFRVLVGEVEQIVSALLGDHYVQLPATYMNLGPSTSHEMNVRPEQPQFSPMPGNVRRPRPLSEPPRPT
Sequence of MET (human) (P08581 25-1390): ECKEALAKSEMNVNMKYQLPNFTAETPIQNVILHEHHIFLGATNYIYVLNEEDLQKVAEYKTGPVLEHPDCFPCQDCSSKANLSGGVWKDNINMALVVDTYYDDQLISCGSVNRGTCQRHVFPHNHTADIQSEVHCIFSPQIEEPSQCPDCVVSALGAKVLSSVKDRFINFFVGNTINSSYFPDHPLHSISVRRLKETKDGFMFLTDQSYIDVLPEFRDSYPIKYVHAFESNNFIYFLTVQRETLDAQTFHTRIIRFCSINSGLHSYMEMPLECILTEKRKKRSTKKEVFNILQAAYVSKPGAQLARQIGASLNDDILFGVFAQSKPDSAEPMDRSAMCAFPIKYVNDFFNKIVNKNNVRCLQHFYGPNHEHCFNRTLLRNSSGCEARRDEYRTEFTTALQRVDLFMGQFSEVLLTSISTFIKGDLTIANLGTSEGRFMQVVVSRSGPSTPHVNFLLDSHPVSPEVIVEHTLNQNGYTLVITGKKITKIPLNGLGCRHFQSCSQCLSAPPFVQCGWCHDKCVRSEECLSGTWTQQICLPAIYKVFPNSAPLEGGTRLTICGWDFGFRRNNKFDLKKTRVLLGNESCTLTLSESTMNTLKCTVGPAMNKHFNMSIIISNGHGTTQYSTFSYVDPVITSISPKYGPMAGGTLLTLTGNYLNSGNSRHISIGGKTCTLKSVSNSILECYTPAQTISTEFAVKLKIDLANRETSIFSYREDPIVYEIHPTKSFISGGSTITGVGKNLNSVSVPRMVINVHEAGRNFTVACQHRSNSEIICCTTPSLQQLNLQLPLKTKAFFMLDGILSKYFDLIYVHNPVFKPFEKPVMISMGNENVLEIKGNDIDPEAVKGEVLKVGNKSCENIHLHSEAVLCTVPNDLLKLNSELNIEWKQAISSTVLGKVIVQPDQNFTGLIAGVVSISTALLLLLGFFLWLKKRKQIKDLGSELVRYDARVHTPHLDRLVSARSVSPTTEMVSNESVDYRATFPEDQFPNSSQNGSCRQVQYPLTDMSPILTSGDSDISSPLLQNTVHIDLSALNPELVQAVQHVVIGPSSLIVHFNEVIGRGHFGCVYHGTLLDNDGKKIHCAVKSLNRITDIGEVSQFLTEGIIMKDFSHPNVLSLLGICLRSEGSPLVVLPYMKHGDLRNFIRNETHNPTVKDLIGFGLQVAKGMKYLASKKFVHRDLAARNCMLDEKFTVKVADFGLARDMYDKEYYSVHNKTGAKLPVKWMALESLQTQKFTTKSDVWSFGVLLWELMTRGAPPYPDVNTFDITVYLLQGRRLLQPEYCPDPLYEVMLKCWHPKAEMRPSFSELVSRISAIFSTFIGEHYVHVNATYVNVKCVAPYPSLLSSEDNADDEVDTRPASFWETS

As a reminder, the IC50 is the concentration that inhibits the measured activity by half. For the compound `C[C@@H](Oc1c(N)ncc2c(C3=CCN(CC4CCCCC4)CC3)coc12)c1c(Cl)ccc(F)c1Cl` [Example 38, 3-(1-Cyclohexylmethyl-1,2,3,6-tetrahydropyridin-4-yl)-7-[(R)-1-(2,6-dichloro-3-fluorophenyl)-ethoxy]-furo[3,2-c]pyridin-6-ylamine], the values for the IC50 at RON (human) and at MET (human) were less than 0.5 µM and less than 500 nM, respectively.
In the case of `C[C@@H](Oc1c(N)ncc2c(C3=CC(N)CCC3)coc12)c1c(Cl)ccc(F)c1Cl` (stereo partly drawn) [Example 146, 3-(3-Aminocyclohex-1-enyl)-7-[(R)-1-(2,6-dichloro-3-fluoro-phenyl)ethoxy]furo[3,2-c]pyridin-6-ylamine], the figures for the IC50 on RON (human) and at MET (human) were 0.5 to 5 µM and less than 500 nM, respectively.
The corresponding values for `C[C@@H](Oc1c(N)ncc2c(-c3ccc(N4CCN(C)CC4)nc3)coc12)c1c(Cl)ccc(F)c1Cl` [Example 88, 7-[(R)-1-(2,6-Dichloro-3-fluorophenyl)ethoxy]-3-[6-(4-methylpiperazin-1-yl)pyridin-3-yl]furo[3,2-c]pyridin-6-ylamine] are less than 0.5 µM and less than 500 nM.
In the same order, the values of `C[C@@H](Oc1c(N)ncc2c(-c3cncc(C(=O)NC(C)(C)C)c3)coc12)c1c(Cl)ccc(F)c1Cl` [Example 280, 5-{6-Amino-7-[(R)-1-(2,6-dichloro-3-fluorophenyl)ethoxy]furo[3,2-c]pyridin-3-yl}-N-tert-butylnicotinamide] are 5 to 20 µM and 500 to 5000 nM.
In the case of `C[C@@H](Oc1c(N)ncc2c(-c3csc(CN4CCC(O)CC4)c3)coc12)c1c(Cl)ccc(F)c1Cl` [Example 306, 1-(4-{6-Amino-7-[(R)-1-(2,6-dichloro-3-fluorophenyl)ethoxy]furo[3,2-c]pyridin-3-yl}thiophen-2-ylmethyl)piperidin-4-ol], the IC50 is less than 0.5 µM at RON (human) and less than 500 nM on MET (human).
The corresponding values for `C[C@@H](Oc1c(N)ncc2c(-c3csc(C(=O)O)c3)coc12)c1c(Cl)ccc(F)c1Cl` [Example 311, 4-{6-Amino-7-[(R)-1-(2,6-dichloro-3-fluorophenyl)ethoxy]furo[3,2-c]pyridin-3-yl}thiophene-2-carboxylic acid] are 0.5 to 5 µM and less than 500 nM.
Turning to `COc1ncc(-c2coc3c(O[C@H](C)c4c(Cl)ccc(F)c4Cl)c(N)ncc23)cn1` [Example 93, 7-[(R)-1-(2,6-Dichloro-3-fluorophenyl)ethoxy]-3-(2-methoxypyrimidin-5-yl)furo[3,2-c]pyridin-6-ylamine], the values for the IC50 at RON (human) and at MET (human) were 5 to 20 µM and 500 to 5000 nM, respectively.
Turning to `C[C@@H](Oc1c(N)ncc2c(-c3ccc(CN4CCCC4)s3)coc12)c1c(Cl)ccc(F)c1Cl` [Example 213, 7-[(R)-1-(2,6-Dichloro-3-fluorophenyl)ethoxy]-3-(5-pyrrolidin-1-ylmethylthiophen-2-yl)-furo[3,2-c]pyridin-6-ylamine], the IC50 on RON (human) is less than 0.5 µM; at MET (human) it was less than 500 nM.
The corresponding values for `CC(Oc1c(N)ncc2c(-c3cnn(C4CCNCC4)c3)coc12)c1c(Cl)cc(Br)cc1Cl` (stereo not drawn) [Example 442, 7-[1-(4-Bromo-2,6-dichlorophenyl)ethoxy]-3-(1-piperidin-4-yl-1H-pyrazol-4-yl)furo[3,2-c]pyridin-6-ylamine] are less than 0.5 µM and less than 500 nM.
In the same order, the values of `CC(Cc1cccc(Cl)c1)Oc1c(N)ncc2c(-c3cnn(C4CCNCC4)c3)coc12` (stereo not drawn) [Example 427, 7-[2-(3-Chlorophenyl)-1-methylethoxy]-3-(1-piperidin-4-yl-1H-pyrazol-4-yl)furo[3,2-c]pyridin-6-ylamine] are less than 0.5 µM and less than 500 nM.
As for `CC(Oc1c(N)ncc2c(-c3cnn(C4CCNCC4)c3)coc12)c1ccccc1OC(F)(F)F` (stereo not drawn) [Example 354, 3-(1-Piperidin-4-yl-1H-pyrazol-4-yl)-7-[1-(2-trifluoromethoxy-phenyl)ethoxy]furo[3,2-c]pyridin-6-ylamine], the IC50 lay within 0.5 to 5 µM on RON (human) and 500 to 5000 nM on MET (human).
In the same order, the values of `C[C@@H](Oc1c(N)ncc2c(-c3ccc[nH]3)coc12)c1c(Cl)ccc(F)c1Cl` [Example 133, 7-[(R)-1-(2,6-Dichloro-3-fluorophenyl)ethoxy]-3-(1H-pyrrol-2-yl)furo[3,2-c]pyridin-6-amine] are 0.5 to 5 µM and 500 to 5000 nM.
For the compound `CC(Oc1c(N)ncc2c(-c3cnn(C4CCNCC4)c3)coc12)c1ccccc1Br` (stereo not drawn) [Example 400, 7-[1-(2-Bromophenyl)ethoxy]-3-(1-piperidin-4-yl-1H-pyrazol-4-yl)furo[3,2-c]pyridin-6-ylamine], the values for the IC50 on RON (human) and at MET (human) were 0.5 to 5 µM and less than 500 nM, respectively.
As to `CC(Oc1c(N)ncc2c(-c3cnn(C4CCNCC4)c3)coc12)c1c(F)cc(Cl)cc1Cl` (stereo not drawn) [Example 372, 7-[1-(2,4-Dichloro-6-fluorophenyl)ethoxy]-3-(1-piperidin-4-yl-1H-pyrazol-4-yl)furo[3,2-c]pyridin-6-ylamine], the IC50 was 0.5 to 5 µM on RON (human) and less than 500 nM at MET (human).
In the same order, the values of `C[C@@H](Oc1c(N)ncc2c(-c3ccc(C(N)=O)cc3)coc12)c1c(Cl)ccc(F)c1Cl` [Example 63, 4-{6-Amino-7-[(R)-1-(2,6-dichloro-3-fluorophenyl)ethoxy]-furo[3,2-c]pyridin-3-yl}benzamide] are 0.5 to 5 µM and 500 to 5000 nM.
In the same order, the values of `C[C@@H](Oc1c(N)ncc2c(-c3ccnc4ccccc34)coc12)c1c(Cl)ccc(F)c1Cl` [Example 92, 7-[(R)-1-(2,6-Dichloro-3-fluorophenyl)ethoxy]-3-quinolin-4-ylfuro[3,2-c]pyridin-6-ylamine] are 5 to 20 µM and 500 to 5000 nM.
On to `C[C@@H]1CN(Cc2cc(-c3coc4c(O[C@H](C)c5c(Cl)ccc(F)c5Cl)c(N)ncc34)cs2)C[C@H](C)N1` [Example 305, 7-[(R)-1-(2,6-Dichloro-3-fluorophenyl)ethoxy]-3-[5-(cis-3,5-dimethylpiperazin-1-ylmethyl)thiophen-3-yl]-furo[3,2-c]pyridin-6-ylamine], for which the IC50 was less than 0.5 µM at RON (human) and less than 500 nM at MET (human).
The corresponding values for `C[C@@H](Oc1c(N)ncc2c(-c3cc(C(=O)N4CCN(C)CC4)cs3)coc12)c1c(Cl)ccc(F)c1Cl` [Example 332, (5-{6-Amino-7-[(R)-1-(2,6-dichloro-3-fluorophenyl)ethoxy]furo[3,2-c]pyridin-3-yl}thiophen-3-yl)-(4-methylpiperazin-1-yl)methanone] are 5 to 20 µM and 500 to 5000 nM.
The corresponding values for `C[C@@H](Oc1c(N)ncc2c(C3=CCOCC3)coc12)c1c(Cl)ccc(F)c1Cl` [Example 138, 7-[(R)-1-(2,6-Dichloro-3-fluorophenyl)-ethoxy]-3-(3,6-dihydro-2H-pyran-4-yl)-furo[3,2-c]pyridin-6-ylamine] are 0.5 to 5 µM and less than 500 nM.
In the same order, the values of `CC(Oc1c(N)ncc2c(-c3cnn(C4CCNCC4)c3)coc12)c1c(F)ccc(F)c1Cl` (stereo not drawn) [Example 379, 7-[1-(2-Chloro-3,6-difluorophenyl)ethoxy]-3-(1-piperidin-4-yl-1H-pyrazol-4-yl)furo[3,2-c]pyridin-6-ylamine] are less than 0.5 µM and less than 500 nM.
Take `C[C@@H](Oc1c(N)ncc2c(C(=O)O)coc12)c1c(Cl)ccc(F)c1Cl` [Example 176, 6-Amino-7-[(R)-1-(2,6-dichloro-3-fluorophenyl)ethoxy]furo[3,2-c]pyridine-3-carboxylic acid]: the values for the IC50 on RON (human) and on MET (human) were 5 to 20 µM and 500 to 5000 nM, respectively.
Regarding `C[C@@H](Oc1c(N)ncc2c(Br)coc12)c1c(Cl)ccc(F)c1Cl` [Example 2, 3-Bromo-7-[(R)-1-(2,6-dichloro-3-fluorophenyl)-ethoxy]-furo[3,2-c]pyridin-6-ylamine], the IC50 was 5 to 20 µM at RON (human) and 500 to 5000 nM on MET (human).
The corresponding values for `C[C@@H](Oc1c(N)ncc2c(C3=CCN(C(=O)[C@H](N)CO)CC3)coc12)c1c(Cl)ccc(F)c1Cl` [Example 255, (2R)-2-Amino-1-[4-{6-amino-7-[(1R)-1-(2,6-dichloro-3-fluoro-phenyl)ethoxy]furo[3,2-c]pyridin-3-yl}-3,6-dihydropyridin-1(2H)-yl]-3-hydroxypropan-1-one] are less than 0.5 µM and less than 500 nM.
As for `C[C@@H](Oc1c(N)ncc2c(-c3ccc(C(=O)N4CCCN(C)CC4)cc3)coc12)c1c(Cl)ccc(F)c1Cl` [Example 293, (4-{6-Amino-7-[(R)-1-(2,6-dichloro-3-fluorophenyl)ethoxy]furo[3,2-c]pyridin-3-yl}phenyl)-(4-methyl-[1,4]diazepan-1-yl)methanone], the IC50 on RON (human) is less than 0.5 µM; at MET (human) it was less than 500 nM.
Consider `C[C@@H](Oc1c(N)ncc2c(-c3ccc(C(=O)NCCN4CCCCC4)cc3)coc12)c1c(Cl)ccc(F)c1Cl` [Example 103, 4-{6-Amino-7-[(R)-1-(2,6-dichloro-3-fluorophenyl)ethoxy]furo[3,2-c]pyridin-3-yl}-N-(2-piperidin-1-ylethyl)benzamide], for which the IC50 is 0.5 to 5 µM on RON (human) and less than 500 nM on MET (human).
As for `CNC(=O)c1ccc(-c2coc3c(O[C@H](C)c4c(Cl)ccc(F)c4Cl)c(N)ncc23)cc1` [Example 289, 4-{6-Amino-7-[(R)-1-(2,6-dichloro-3-fluorophenyl)ethoxy]furo[3,2-c]pyridin-3-yl}-N-methylbenzamide], the values for the IC50 on RON (human) and on MET (human) were 0.5 to 5 µM and 500 to 5000 nM, respectively.
Regarding `CC(Oc1c(N)ncc2c(-c3cnn(C4CCNCC4)c3)coc12)c1ccc(C(F)(F)F)cc1` (stereo not drawn) [Example 348, 3-(1-Piperidin-4-yl-1H-pyrazol-4-yl)-7-[1-(4-trifluoromethyl-phenyl)ethoxy]furo[3,2-c]pyridin-6-ylamine], the IC50 was 0.5 to 5 µM on RON (human) and less than 500 nM on MET (human).

(Values after patent publication US8022206B2 (OSI Pharmaceuticals, LLC, priority 2008, dated 2011).)
